This is an account of results in patent US20200010482A1, “INHIBITORS OF BETA SECRETASE” (Janssen Pharmaceutica NV, priority 2017, published 2020).

In one assay the target is T1, BACE2 (Homo sapiens, UniProt Q9Y5Z0).
T1 construct: recombinant BACE2 protein in a final concentration of 0.4 μg/ml
T1 sequence (Q9Y5Z0 63-518): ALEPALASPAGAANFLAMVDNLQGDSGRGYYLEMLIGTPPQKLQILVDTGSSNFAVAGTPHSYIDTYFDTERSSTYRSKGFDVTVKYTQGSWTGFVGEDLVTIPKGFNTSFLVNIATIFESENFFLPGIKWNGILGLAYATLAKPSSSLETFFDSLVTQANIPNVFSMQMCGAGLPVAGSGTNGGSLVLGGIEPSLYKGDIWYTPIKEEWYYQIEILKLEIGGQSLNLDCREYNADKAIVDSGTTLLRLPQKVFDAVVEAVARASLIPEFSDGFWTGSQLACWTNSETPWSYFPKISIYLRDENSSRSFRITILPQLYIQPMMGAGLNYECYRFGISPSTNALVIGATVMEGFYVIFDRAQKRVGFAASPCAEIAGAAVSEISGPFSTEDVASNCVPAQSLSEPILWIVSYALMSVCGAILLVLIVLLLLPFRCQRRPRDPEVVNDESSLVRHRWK
In words: BACE2 biochemical FRET based assay. As to conditions: recombinant BACE2 0.4 μg/ml, 10 μM substrate, 450 min, pH 5.0; for IC50: read-out: BIOCHEMICAL FRET BASED ASSAY pIC50 (converted). The method, boiled down: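 Recombinant enzyme (0.4 μg/ml final) incubated 450 min at room temperature with 10 μM Mca/Dnp-quenched Swedish-mutant APP peptide in 50 mM citrate pH 5.0, 0.05% PEG, no DMSO. Fluorescence (ex 320/em 405 nm) change from T0 to T450 normalised to no-enzyme and enzyme controls; IC50 from least-squares curve fit.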

The test system of assay [1] is Abeta 1-42 produced and secreted by SKNBE2 cells expressing hAPP695. Description: Cellular αLisa assay in SKNBE2 cells, Abeta 1-42. It is filed as cell-based, human. Particulars: SKNBE2 cells expressing hAPP695, 18 hours incubation; for IC50: Homo sapiens, SKNBE2, 18 h, read-out: CELLULAR αLISA ASSAY IN SKNBE2 CELLS ABETA 42 PIC50 (converted). The method, boiled down:
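Human neuroblastoma SKNBE2 cells expressing wild-type hAPP695 treated with compound for 18 h; secreted Abeta total or Abeta 1-42 in medium measured by sandwich αLisa (AbN/25 with Ab4G8 or cAb42/26), read after 1 h. IC50 from least-squares fit of % Controlmin, normalised to untreated and no-antibody controls.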

The target of a further assay is T2, BACE1 (Homo sapiens, UniProt P56817).
T2 construct: recombinant BACE1 protein in a final concentration of 0.04 μg/ml
T2 sequence (P56817 46-501): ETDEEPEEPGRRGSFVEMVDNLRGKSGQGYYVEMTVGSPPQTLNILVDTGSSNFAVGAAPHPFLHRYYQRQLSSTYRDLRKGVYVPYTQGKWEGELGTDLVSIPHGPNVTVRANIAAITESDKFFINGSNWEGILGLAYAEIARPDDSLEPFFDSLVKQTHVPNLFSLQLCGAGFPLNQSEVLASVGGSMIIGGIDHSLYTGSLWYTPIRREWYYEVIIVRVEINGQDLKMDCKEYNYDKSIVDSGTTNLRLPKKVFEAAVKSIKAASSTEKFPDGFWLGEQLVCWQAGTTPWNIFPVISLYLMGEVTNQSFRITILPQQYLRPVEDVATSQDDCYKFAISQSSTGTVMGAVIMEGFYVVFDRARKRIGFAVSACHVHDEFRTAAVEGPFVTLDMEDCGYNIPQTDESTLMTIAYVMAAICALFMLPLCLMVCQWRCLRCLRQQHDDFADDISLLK
In words: BACE1 biochemical FRET based assay. Particulars: recombinant BACE1 0.04 μg/ml, 20 μM substrate, 450 min, pH 5.0; for IC50: read-out: BIOCHEMICAL FRET BASED ASSAY pIC50 (converted). In a few lines:
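Recombinant BACE1 (0.04 μg/ml final) incubated 450 min at room temperature with 20 μM Mca/Dnp-labelled 13-mer Swedish APP peptide in 50 mM citrate pH 5.0, 0.05% PEG. Fluorescence (ex 320/em 405 nm) at 450 min minus early baseline Tx; IC50 fitted from % Controlmin versus concentration.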

Assay [2] relates to Abeta total produced and secreted by SKNBE2 cells expressing hAPP695. Description: Cellular αLisa assay in SKNBE2 cells, Abeta total. Format: cell-based, human. Particulars: SKNBE2 cells expressing hAPP695, 18 hours incubation; for IC50: Homo sapiens, SKNBE2, 18 h, read-out: CELLULAR αLISA ASSAY IN SKNBE2 CELLS ABETA TOTAL pIC50 (converted). As to the method: In two αLisa assays the levels of Abeta total and Abeta 1-42 produced and secreted into the medium of human neuroblastoma SKNBE2 cells are quantified. The assay is based on the human neuroblastoma SKNBE2 expressing the wild type Amyloid Precursor Protein (hAPP695). The compounds are diluted and added to these cells, incubated for 18 hours and then measurements of Abeta 1-42 and Abeta total are taken. Abeta total and Abeta 1-42 are measured by sandwich αLisa. αLisa is a sandwich assay using biotinylated antibody AbN/25 attached to streptavidin coated beads and antibody Ab4G8 or cAb42/26 conjugated acceptor beads for the detection of Abeta total and Abeta 1-42 respectively. In the presence of Abeta total or Abeta 1-42, the beads come into close proximity. The excitation of the donor beads provokes the release of singlet oxygen molecules that trigger a cascade of energy transfer in the acceptor beads, resulting in light emission. Light emission is measured after 1 hour incubation (excitation at […] and emission at 615 nm).
A best-fit curve is fitted by a minimum sum of squares method to the plot of % Controlmin versus compound concentration. From this an IC50 value (inhibitory concentration causing 50% inhibition of activity) can be obtained. • LC=Median of the low control values=Low control: cells preincubated without compound, without biotinylated Ab in the αLisa • HC=Median of the High control values=High Control: cells preincubated without compound
% Effect=100−[(sample−LC)/(HC−LC)*100]
% Control=(sample/HC)*100
% Controlmin=(sample−LC)/(HC−LC)*100

Molecules are shown by their SMILES.

Take `COc1nccc2c1C[C@]1(c3cc(O)ccc3F)N=C(N)SC[C@@H]1C2` [Compound 36]: the IC50 is 0.0457 µM at BACE2, 0.0166 µM in assay [1], 0.138 µM at BACE1 and 0.0158 µM in assay [2].

With `COc1ncc(-c2ccccc2Cl)c2c1C[C@]1(c3ccc(F)cc3F)N=C(N)SC[C@@H]1C2` [Compound 52], the “BIOCHEMICAL FRET BASED ASSAY pIC50” value was 7.35 at BACE2 and 8.38 at BACE1. Besides, in assay [1], the “CELLULAR αLISA ASSAY IN SKNBE2 CELLS ABETA 42 PIC50” value was 7.96. Also, the “CELLULAR αLISA ASSAY IN SKNBE2 CELLS ABETA TOTAL pIC50” value in assay [2] came out at 7.88.

Consider `COc1ncc(-c2cc(C#N)ccc2Cl)c2c1C[C@]1(c3ccc(F)cc3F)N=C(N)SC[C@@H]1C2` [Compound 53], for which the “BIOCHEMICAL FRET BASED ASSAY pIC50” value at BACE2 was found to be 6.84; on BACE1, 7.97. Also, the “CELLULAR αLISA ASSAY IN SKNBE2 CELLS ABETA 42 PIC50” value in assay [1] came to 7.84. In addition, the “CELLULAR αLISA ASSAY IN SKNBE2 CELLS ABETA TOTAL pIC50” value in assay [2] was found to be 7.9.

For `COc1ncc(-c2cccnc2)c2c1C[C@]1(c3ccc(F)cc3F)N=C(N)SC[C@@H]1C2` [Compound 87], the IC50 at BACE2 is 0.00708 µM; in assay [1], 0.000646 µM; on BACE1, 0.0038 µM; in assay [2], 0.000631 µM.

For `COc1ncc(Oc2ccccn2)c2c1C[C@]1(c3ccc(F)cc3F)N=C(N)SC[C@@H]1C2` [Compound 135], the “BIOCHEMICAL FRET BASED ASSAY pIC50” value at BACE2 turned out to be 7.55; at BACE1 it was 7.6. Further, the “CELLULAR αLISA ASSAY IN SKNBE2 CELLS ABETA 42 PIC50” value in assay [1] came out at 7.6. The “CELLULAR αLISA ASSAY IN SKNBE2 CELLS ABETA TOTAL pIC50” value in assay [2] is 7.62.

Consider `COc1ncc(Br)c2c1C[C@]1(c3cc(Oc4ccccn4)ccc3F)N=C(N)SC[C@@H]1C2` [Compound 137], for which the “BIOCHEMICAL FRET BASED ASSAY pIC50” value at BACE2 turned out to be 7.72; on BACE1, 7.97. In assay [1], the “CELLULAR αLISA ASSAY IN SKNBE2 CELLS ABETA 42 PIC50” value was 7.74. In addition, the “CELLULAR αLISA ASSAY IN SKNBE2 CELLS ABETA TOTAL pIC50” value in assay [2] is listed as 7.82.

In the case of `COc1nccc2c1C[C@@]1(c3ccc(F)cc3F)N=C(N)SC[C@H]1C2` [Compound 182], the IC50 at BACE2 is 6.17 µM; in assay [1] it was 1.29 µM; at BACE1, 4.79 µM; in assay [2] it was 1.32 µM.

With `COc1nccc2c1C[C@@]1(c3cc(O)ccc3F)N=C(N)SC[C@H]1C2` [Compound 183], the IC50 on BACE2 was 6.92 µM; in assay [1] it was 3.09 µM; at BACE1, 4.47 µM; in assay [2], 3.47 µM.

`COc1ncc(-c2cnccc2C)c2c1C[C@@]1(c3cc(-c4cncnc4)ccc3F)N=C(N)SC[C@H]1C2` [Compound 193]: the figures for the “BIOCHEMICAL FRET BASED ASSAY pIC50” value at BACE2 and on BACE1 were below 5 and 5.26, respectively. Moreover, the “CELLULAR αLISA ASSAY IN SKNBE2 CELLS ABETA 42 PIC50” value in assay [1] is 6.01. The “CELLULAR αLISA ASSAY IN SKNBE2 CELLS ABETA TOTAL pIC50” value in assay [2] is recorded as 5.9.
